pIC50: −log10 of the molar value.

By pIC50 is commonly meant the IC50 on a negative log10 scale, so that one unit is a factor of ten.

The test system of the test is S6RP serine-240/244 phosphorylation. As to the kind of experiment: In vitro Phospho-S6 cellular assay (pS6RP S240/244) in HEK293T/17 cells. It counts as cell-based. The conditions noted are these: Homo sapiens, 2 hours, read-out: pS6 IC50. An excerpt:
Activation of mTOR signaling results in phosphorylation of several downstream targets. In cells, mTOR exists in two different protein complexes. The mTOR Complex-1 (mTORC1) phosphorylates and activates S6 Kinase 1 (S6K1) and S6 Kinase 2 (S6K2) (also known as p70S6K) which then phosphorylate S6 Ribosomal Protein (S6RP) (also known as RPS6)3. S6RP is phosphorylated on serine 235, serine 236, serine 240 and serine 244 by both pS6K1 and pS6K2. The mTOR Complex-2 (mTORC2) phosphorylates AKT on serine 473 which activates the AKT signaling pathway.
The assay measures a test compound's inhibition of S6RP serine-240/244 phosphorylation and inhibition of Akt serine-473 phosphorylation in human embryonic kidney derived HEK293T/17 cells (ATCC CRL-11268).
The HEK293T/17 cell line is maintained in DMEM media (Invitrogen catalogue number 41965-039) supplemented with 10% FCS at 37° C. in a 5% CO2 humidified incubator.
Cells are seeded in 96-well plates at 40,000 cells/well (pS6RP S240/244 assay) or 80,000 cells/well (pAkt S473 assay) in 90 μl growth media (DMEM, 2% FCS). Plates are incubated for 1 hour in a humidified incubator to allow the cells to adhere. Cells are treated with 8 concentrations of test compounds or DMSO alone for controls (final DMSO concentration 0.1%) and incubated at 37° C. for 2 hours. Then 20 μl of 5× concentrated lysis buffer (750 mM NaCl, 100 mM Tris pH7.4, 5 mM ADTA, 5 mM EGTA, 5% Triton X-100) is added, plates are sealed and incubated for 15 minutes at 4° C. with gentle shaking. After cell lysis, 25 μl cell lysate is transferred to a MesoScale plate coated with an antibody to pS6RP Ser240/244 (MesoScale Discovery K150DGD-3) or an antibody to pAkt Ser 473 (MesoScale Discovery K151DGD-3). Plates have been blocked before by incubation with 150 μl MesoScale Discovery Blocking Solution-A for 1 hour at room temperature followed by washing with 150 μl 1× Tris wash buffer per well. After the transfer of the cell lysate to the MSD plate, the pS6RP (or pAkt) protein is captured on the coated antibody by incubation at room temperature for 1 hour with gentle shaking. After the capture step the plate is washed three times with 150 μl of 1× Tris wash buffer per well. Then 25 μl detection antibody conjugated with a Sulfo-Tag is added and incubated for 1 hour at room temperature with gentle shaking. Subsequently the antibody solution is removed and the plate is washed 3 times with 150 μl×Tris wash buffer per well and 150 μl Read buffer is added. The plates are analysed on a MSD 2400 Plate Reader (MesoScale Discovery). Data analysis is performed using nonlinear regression for a sigmoidal dose-response with a variable slope.
In the case of `CC(C)C(=O)N1Cc2nc(-c3ccc(NC(=O)NC4CC4)cc3F)nc(N3CCOC[C@@H]3C)c2C1` [Example 174, (S)-1-cyclopropyl-3-(3-fluoro-4-(6-isobutyryl-4-(3-methylmorpholino)-6,7-dihydro-5H-pyrrolo[3,4-d]pyrimidin-2-yl)phenyl)urea], the negative-log IC50 (pIC50) was 6.26.

Take `C[C@H]1COCCN1c1nc(-c2ccc(NC(=O)Nc3ccc(F)cc3)cc2)nc2c1CN(C)C2` [Example 52, (S)-1-(4-fluorophenyl)-3-(4-(6-methyl-4-(3-methylmorpholino)-6,7-dihydro-5H-pyrrolo[3,4-d]pyrimidin-2-yl)phenyl)urea]: the pIC50 is 7.05.

As for `C[C@H]1COCCN1c1nc(-c2ccc(NC(=O)NC3CC3)cc2)nc2c1CN(C(=O)C1CC1)C2` [Example 17, (S)-1-(4-(6-(cyclopropanecarbonyl)-4-(3-methylmorpholino)-6,7-dihydro-5H-pyrrolo[3,4-d]pyrimidin-2-yl)phenyl)-3-cyclopropylurea], the negative-log IC50 (pIC50) is 6.85.

As for `CNC(=O)Nc1ccc(-c2nc3c(c(N4CCOC[C@@H]4C)n2)CN(CC2CC2)C3)cc1` [Example 47, (S)-1-(4-(6-(cyclopropylmethyl)-4-(3-methylmorpholino)-6,7-dihydro-5H-pyrrolo[3,4-d]pyrimidin-2-yl)phenyl)-3-methylurea], the pIC50 was 6.66.

For the compound `COC(=O)N1Cc2nc(-c3ccc(NC(=O)NCCF)cc3F)nc(N3CCOCC3)c2C1` [Example 169, Methyl 2-(2-fluoro-4-(3-(2-fluoroethyl)ureido)phenyl)-4-morpholino-5H-pyrrolo[3,4-d]pyrimidine-6(7H)-carboxylate], the pIC50 was 6.84.

Consider `C[C@H]1COCCN1c1nc(-c2ccc(NC(=O)NC3CC3)cc2F)nc2c1CN(S(C)(=O)=O)C2` [Example 177, (S)-1-cyclopropyl-3-(3-fluoro-4-(4-(3-methylmorpholino)-6-(methylsulfonyl)-6,7-dihydro-5H-pyrrolo[3,4-d]pyrimidin-2-yl)phenyl)urea], for which the negative-log IC50 (pIC50) is 6.39.

Consider `CCNC(=O)Nc1cc(F)c(-c2nc3c(c(N4CCOC[C@@H]4C)n2)CN(C(=O)OCC)C3)cc1F` [Example 141, (S)-ethyl 2-(4-(3-ethylureido)-2,5-difluorophenyl)-4-(3-methylmorpholino)-5H-pyrrolo[3,4-d]pyrimidine-6(7H)-carboxylate], for which the pIC50 is 6.08.

On to `COC(=O)N1Cc2nc(-c3ccc(NC(=O)NCCF)cc3F)nc(N3CCOC[C@@H]3C)c2C1` [Example 183, (S)-methyl 2-(2-fluoro-4-(3-(2-fluoroethyl)ureido)phenyl)-4-(3-methylmorpholino)-5H-pyrrolo[3,4-d]pyrimidine-6(7H)-carboxylate], for which the pIC50 is 7.22.

As to `CCCNC(=O)Nc1ccc(-c2nc3c(c(N4CCOC[C@@H]4C)n2)CN(CC2CC2)C3)cc1` [Example 49, (S)-1-(4-(6-(cyclopropylmethyl)-4-(3-methylmorpholino)-6,7-dihydro-5H-pyrrolo[3,4-d]pyrimidin-2-yl)phenyl)-3-propylurea], the negative-log IC50 (pIC50) was 6.51.

As for `CC(C)NC(=O)N1CCc2c(nc(-c3ccc(NC(=O)NC4CC4)cc3F)nc2N2CCOC[C@@H]2C)C1` [Example 189, (S)-2-(4-(3-cyclopropylureido)-2-fluorophenyl)-N-isopropyl-4-(3-methylmorpholino)-5,6-dihydropyrido[3,4-d]pyrimidine-7(8H)-carboxamide], the pIC50 is 6.88.

Turning to `CCNC(=O)Nc1ccc(-c2nc3c(c(N4CCOC[C@@H]4C)n2)CN(C(=O)C(C)C)C3)cc1` [Example 21, (S)-1-ethyl-3-(4-(6-isobutyryl-4-(3-methylmorpholino)-6,7-dihydro-5H-pyrrolo[3,4-d]pyrimidin-2-yl)phenyl)urea], the negative-log IC50 (pIC50) was 6.95.

Take `C[C@H]1COCCN1c1nc(-c2ccc(NC(=O)NC3CC3)cc2)nc2c1CCN(CC(C)(C)C)C2` [Example 41, (S)-1-cyclopropyl-3-(4-(4-(3-methylmorpholino)-7-neopentyl-5,6,7,8-tetrahydropyrido[3,4-d]pyrimidin-2-yl)phenyl)urea]: the negative logarithm of the IC50 (pIC50) is 6.92.

As for `CC(C)NC(=O)Nc1ccc(-c2nc3c(c(N4CCOC[C@@H]4C)n2)CN(CC2CC2)C3)cc1` [Example 50, (S)-1-(4-(6-(cyclopropylmethyl)-4-(3-methylmorpholino)-6,7-dihydro-5H-pyrrolo[3,4-d]pyrimidin-2-yl)phenyl)-3-isopropylurea], the pIC50 is 6.37.

For the compound `COC(=O)N1Cc2nc(-c3ccc(NC(=O)NC4CC4)cc3F)nc(N3CCOC[C@H]3C)c2C1` [Example 180, (R)-methyl 2-(4-(3-cyclopropylureido)-2-fluorophenyl)-4-(3-methylmorpholino)-5H-pyrrolo[3,4-d]pyrimidine-6(7H)-carboxylate], the negative logarithm of the IC50 (pIC50) is 7.24.

Consider `CC(C)N1Cc2nc(-c3ccc(NC(=O)NCCO)cc3F)nc(N3CCOC[C@@H]3C)c2C1` [Example 187, (S)-1-(3-fluoro-4-(6-isopropyl-4-(3-methylmorpholino)-6,7-dihydro-5H-pyrrolo[3,4-d]pyrimidin-2-yl)phenyl)-3-(2-hydroxyethyl)urea], for which the negative-log IC50 (pIC50) was 6.25.

For `C[C@@H]1COCCN1c1nc(-c2ccc(NC(=O)NC3CC3)cc2F)nc2c1CN(C(=O)C1CC1)C2` [Example 188, (R)-1-(4-(6-(cyclopropanecarbonyl)-4-(3-methylmorpholino)-6,7-dihydro-5H-pyrrolo[3,4-d]pyrimidin-2-yl)-3-fluorophenyl)-3-cyclopropylurea], the pIC50 is 6.66.

Take `CCNC(=O)Nc1ccc(-c2nc3c(c(N4CCOC[C@@H]4C)n2)CCN(C(=O)c2ccc(F)cc2)C3)cc1` [Example 24, (S)-1-ethyl-3-(4-(7-(4-fluorobenzoyl)-4-(3-methylmorpholino)-5,6,7,8-tetrahydropyrido[3,4-d]pyrimidin-2-yl)phenyl)urea]: the negative logarithm of the IC50 (pIC50) was 6.90.

On to `C[C@H]1COCCN1c1nc(-c2ccc(NC(=O)NC3CC3)cc2)nc2c1CN(C)C2` [Example 38, (S)-1-cyclopropyl-3-(4-(6-methyl-4-(3-methylmorpholino)-6,7-dihydro-5H-pyrrolo[3,4-d]pyrimidin-2-yl)phenyl)urea], for which the pIC50 is 6.77.

On to `CCNC(=O)Nc1ccc(-c2nc3c(c(N4CCOC[C@@H]4C)n2)CCNC3)cc1` [Example 13, (S)-1-ethyl-3-(4-(4-(3-methylmorpholino)-5,6,7,8-tetrahydropyrido[3,4-d]pyrimidin-2yl)phenyl)urea], for which the pIC50 is 6.62.

With `C[C@H]1COCCN1c1nc(-c2ccc(NC(N)=O)cc2)nc2c1CN(CC1CC1)C2` [Example 48, (S)-1-(4-(6-(cyclopropylmethyl)-4-(3-methylmorpholino)-6,7-dihydro-5H-pyrrolo[3,4-d]pyrimidin-2-yl)phenyl)urea], the pIC50 was 6.16.

In the case of `C[C@H]1COCCN1c1nc(-c2ccc(NC(=O)NC3CC3)cc2)nc2c1CN(CC1CC1)C2` [Example 30], the pIC50 was 6.77.

As to `CCNC(=O)Nc1ccc(-c2nc3c(c(N4CCOC[C@@H]4C)n2)CN(C(C)=O)C3)cc1` [Example 18, (S)-1-(4-(6-acetyl-4-(3-methylmorpholino)-6,7-dihydro-5H-pyrrolo[3,4-d]pyrimidin-2-yl)phenyl)-3-ethylurea], the negative-log IC50 (pIC50) is 6.35.

For `C[C@H]1COCCN1c1nc(-c2ccc(NC(=O)NC3CC3)cc2)nc2c1CNCC2` [Example 11, (S)-1-cyclopropyl-3-(4-(4-(3-methylmorpholino)-5,6,7,8-tetrahydropyrido[4,3-d]pyrimidin-2-yl)phenyl)urea], the negative logarithm of the IC50 (pIC50) is 6.23.

Consider `CC(C)N1Cc2nc(-c3ccc(NC(=O)NCCF)cc3F)nc(N3CCOC[C@@H]3C)c2C1` [Example 186, (S)-1-(3-fluoro-4-(6-isopropyl-4-(3-methylmorpholino)-6,7-dihydro-5H-pyrrolo[3,4-d]pyrimidin-2-yl)phenyl)-3-(2-fluoroethyl)urea], for which the pIC50 is 6.71.

With `CCNC(=O)Nc1ccc(-c2nc3c(c(N4CCOC[C@@H]4C)n2)CN(C(=O)OC(C)(C)C)C3)c(F)c1` [Example 153, (S)-tert-butyl 2-(4-(3-ethylureido)-2-fluorophenyl)-4-(3-methylmorpholino)-5H-pyrrolo[3,4-d]pyrimidine-6-(7H)-carboxylate], the negative-log IC50 (pIC50) is 6.85.

(Values after patent publication US8785457B2 (Cellzome Limited, priority 2009, dated 2014).)
